Measurements as given in US6558671B1, “Cysteine-depleted peptides recognized by A3-restricted cytotoxic lymphocytes, and uses therefor” (The University of Virginia Patent Foundation, priority 1997, dated 2003).
“Also recorded” adds a separate entry of the source. Like-named read-outs stand apart in the source and are kept apart here. Values belong to the sequence of their own block, whether it stands above or below them.

Legend:
[1] = system: HLA-A1-restricted VMM15 CTL; test: 4-hour chromium release assay, peptide-pulsed C1R-A1 targets with VMM15 CTL; format: cell-based, human; settings: for CTL recognition compared with the wild-type peptide: alanine or serine substituted peptides, FIG. 8; for reconstitution of an epitope for VMM15 CTL / recognition by VMM15 CTL: C1R-A1 cells pulsed with synthetic peptide at 0.1 to 10 uM, FIG. 3; for recognition by VMM15 CTL in peptide screening: screen of tyrosinase peptides matching the HLA-A1 motif, one experiment with 48 peptides; for recognition of peptide-pulsed C1R-A1 cells in dose-titration assay: HPLC-purified peptides, FIG. 7
VMM12 CTL = test: 4-hour chromium release assay, peptide-pulsed C1R-A1 targets with VMM12 CTL; format: cell-based, human; settings: C1R-A1 cells pulsed with peptide at 1 to 0.01 μM; FIG. 4
VMM15 CTL = test: Cold target inhibition assay with VMM15 CTL; format: cell-based, human; settings: for inhibition of lysis of labeled peptide-pulsed targets by unlabeled targets pulsed with the peptide: VMM15 EBV targets pulsed at 20 μg/ml, effector-to-labeled target ratio 10:1, FIG. 9
Protocol: FIG. 9. […] (SEQ ID NO:73) for recognition by VMM15 CTL. […] (SEQ ID NO:79), or no peptide, as indicated. Increasing numbers of these various unlabeled targets were pre-incubated with VMM15 CTL for 1 hour at 37° C. Labeled (hot) targets were then added for an additional 4 hour co-culture at a final effector-to-labeled target ratio of 10:1.
(SEQ ID NO:19), and because of the similar dose-titration curves observed for CTL recognition (FIG. […] (SEQ ID NO:19)) of both peptides adopt a similar conformation when bound to HLA-A1. A cold target inhibition assay was performed with peptide-pulsed target cells to test that hypothesis.

H-Y specific CTL = settings: cited from earlier work
[2] = C1R-A1 targets, E:T 25:1, FIG. 8A, read-out: half-maximal lysis, nonamer

EC50 ([1]; C1R-A1 targets, E:T 10:1, FIG. 8B, read-out: half-maximal lysis, dodecamer): ~100 nM
Sequence: DAEKADICTDEY [dodecamer with alanine replacing the cysteine at position 5]
CTL recognition compared with the wild-type peptide [1]: significantly greater recognition

Sequence: DAEKCDIATDEY [dodecamer with alanine substituted for the cysteine at position 8]
CTL recognition compared with the wild-type peptide [1]: prevented recognition at every concentration tested

Sequence: DAEKCDICTDEY
reconstitution of an epitope for VMM12 CTL (VMM12 CTL): reconstituted an epitope for these VMM12 CTL, although weakly
inhibition of lysis of peptide-pulsed targets by cold wild-type VMM15 tumor cells (VMM15 CTL; targets pulsed with peptide at 50 μg/ml): can be inhibited
reconstitution of an epitope for VMM15 CTL / recognition by VMM15 CTL [1]: recognized; also recorded: reconstituted
EC50 ([1]; C1R-A1 targets, E:T 10:1, FIG. 8B, read-out: half-maximal sensitization of target cells for lysis, dodecamer): 10000 nM
recognition by VMM15 CTL in peptide screening [1]: recognized

Sequence: DAEKSDICTDEY [dodecamer with serine replacing the more N-terminal cysteine]
inhibition of lysis of labeled peptide-pulsed targets by unlabeled targets pulsed with the peptide (VMM15 CTL): competes

Sequence: EKCDICTDEY
reconstitution of an epitope for VMM15 CTL / recognition by VMM15 CTL [1]: recognized; also recorded: reconstituted
recognition of peptide-pulsed C1R-A1 cells in dose-titration assay ([1]; E:T 25:1): equally reactive
recognition by VMM15 CTL in peptide screening [1]: recognized

Sequence: FIDSYICQV
effect of cysteinylation of the cysteine on recognition (H-Y specific CTL): improving recognition by one clone, and reducing recognition by another

EC50 [1, 2]: 20 nM
Sequence: KADICTDEY [nonamer with alanine replacing the cysteine at position 2]
CTL recognition compared with the wild-type peptide [1]: significantly greater recognition

Sequence: KCDIATDEY [nonamer with alanine substituted for the cysteine distal to the N-terminus]
CTL recognition compared with the wild-type peptide [1]: not discernibly more effective than the wild-type peptide

EC50 ([1]; Example A1-1, read-out: half-maximal lysis): ~1000 nM
Sequence: KCDICTDEY
reconstitution of an epitope for VMM15 CTL / recognition by VMM15 CTL [1]: reconstitutes an epitope for VMM15 CTL; also recorded: most effective; also recorded: reconstituted
half-maximal lysis ([1]; Example A1-1): approximately 1 ug/ml
recognition of peptide-pulsed C1R-A1 cells in dose-titration assay ([1]; E:T 25:1): equally reactive
recognition by VMM15 CTL in peptide screening [1]: recognized

Sequence: KCDISTDEY [nonamer with serine substituted for the cysteine distal to the N-terminus]
CTL recognition compared with the wild-type peptide [1]: not discernibly more effective than the wild-type peptide

EC50 [1, 2]: 2 nM
Sequence: KSDICTDEY [nonamer with serine replacing the cysteine at position 2]
inhibition of lysis of labeled peptide-pulsed targets by unlabeled targets pulsed with the peptide (VMM15 CTL): similarly inhibited
CTL recognition compared with the wild-type peptide [1]: significantly greater recognition
